Results reported in ChEMBL document CHEMBL4480461, “Karamomycins A-C: 2-Naphthalen-2-yl-thiazoles from Nonomuraea endophytica” (J Nat Prod, 2019).
Calls of active or inactive are those of the source.

How the values were obtained:
Format in all cases: functional, organism-based
Staphylococcus aureus = test: Antimicrobial activity against Staphylococcus aureus at 40 ug/disc by agar diffusion method
Bacillus subtilis = test: Antimicrobial activity against Bacillus subtilis ATCC 6051 at 40 ug/disc by agar diffusion method
[1] = system: Streptomyces viridochromogenes; test: Antimicrobial activity against Streptomyces viridochromogenes Tue57 at 40 ug/disc by agar diffusion method
Escherichia coli = test: Antimicrobial activity against Escherichia coli at 40 ug/disc by agar diffusion method
Rhizomucor miehei = test: Antimicrobial activity against Mucor miehei Tu 284 at 40 ug/disc by agar diffusion method
Candida albicans = test: Antimicrobial activity against Candida albicans at 40 ug/disc by agar diffusion method
Chlorella vulgaris = test: Antimicrobial activity against Chlorella vulgaris at 40 ug/disc by agar diffusion method
Chlorella sorokiniana = test: Antimicrobial activity against Chlorella sorokiniana at 40 ug/disc by agar diffusion method
Desmodesmus subspicatus = test: Antimicrobial activity against Scenedesmus subspicatus at 40 ug/disc by agar diffusion method

Measured: Activity

COc1cc(C2=N[C@H](CO)CS2)c(O)c2ccccc12
inactive: Staphylococcus aureus | Bacillus subtilis | [1] | Escherichia coli | Rhizomucor miehei | Candida albicans | Chlorella vulgaris | Chlorella sorokiniana | Desmodesmus subspicatus

COc1cc(-c2nc(CO)cs2)c(O)c2ccccc12
inactive: Staphylococcus aureus | Bacillus subtilis | [1] | Escherichia coli | Rhizomucor miehei | Candida albicans | Chlorella vulgaris | Chlorella sorokiniana | Desmodesmus subspicatus

COc1cc(C2=N[C@H]([C@@H]3SC[C@H]4[C@@H]5SC[C@](C)(C(=O)N43)N5C)CS2)c(O)c2ccccc12
inactive: Staphylococcus aureus | Bacillus subtilis | [1] | Escherichia coli | Rhizomucor miehei | Candida albicans | Chlorella vulgaris | Chlorella sorokiniana | Desmodesmus subspicatus
